This note sets out measurements from patent US11992497B2 (priority 2021, dated 2024).

Structures are written as SMILES. Where only a bound is given, the exact number is not on record here.

What all share (experiment): in vitro
One data set concerns the target T1, UGT2B7 (Homo sapiens, UniProt P16662).
T1 sequence (P16662 24-529): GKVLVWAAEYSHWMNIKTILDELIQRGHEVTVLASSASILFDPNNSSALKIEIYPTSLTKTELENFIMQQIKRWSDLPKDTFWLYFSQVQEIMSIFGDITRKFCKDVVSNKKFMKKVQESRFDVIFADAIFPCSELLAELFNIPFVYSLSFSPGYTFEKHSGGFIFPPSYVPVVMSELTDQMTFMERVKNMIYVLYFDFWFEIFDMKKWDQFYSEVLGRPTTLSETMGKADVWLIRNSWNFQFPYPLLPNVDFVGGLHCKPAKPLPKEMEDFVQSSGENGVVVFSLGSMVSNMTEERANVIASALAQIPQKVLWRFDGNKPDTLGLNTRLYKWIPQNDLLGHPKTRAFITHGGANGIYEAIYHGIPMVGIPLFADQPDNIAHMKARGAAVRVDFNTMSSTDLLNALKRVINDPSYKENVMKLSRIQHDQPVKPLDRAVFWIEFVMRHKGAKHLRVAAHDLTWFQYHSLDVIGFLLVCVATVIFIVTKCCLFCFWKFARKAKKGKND
The conditions noted are these: for half-life at 1 µM / microsomal CLint at 1 µM: human, recombinant enzyme, pH 7.4. Here is the method: (§1) Experimental Summary: UGT Reaction Phenotyping (7 Isoforms).
(§2) Experimental Procedure: cDNA expressed human UGT enzyme preparations (Supersomes) supplied by BD Biosciences were obtained and stored at −80° C. prior to use. The specific isoforms were chosen by the performing laboratory based on published guidelines. They are considered the clinically relevant of the UGT isoforms (E. Kasteel et al. Human variability in isoform-specific UDP-glucuronosyltransferases: markers of acute and chronic exposure, polymorphisms and uncertainty factors. Arch Toxicol. 2020; 94(8): 2637-2661)
(§3) Supersomes in 0.1 M Tris buffer pH 7.4, alamethicin (44.6 μg/mL) and test compound (final concentration of 5 μM; final DMSO concentration ≤0.1%) were pre-incubated at 37° C. prior to the addition of UDGPA (final concentration 2 mM) to initiate the reaction. Incubations were also performed using control Supersomes (no UGT enzymes present) to reveal any non-enzymatic degradation. Compounds known to be metabolized specifically by each UGT isoform were used as control compounds (7-hydroxy-4-trifluoromethylcoumarin, all but UGT1A4, or trifluoperazine for UGT1A4).
(§4) CBG or Compound 1 were incubated in duplicate for 0, 10, 20, 40 and 60 min with each isoform. The reactions were stopped by the addition of methanol containing an analytical internal standard at the time points specified in the table above. Stopped reactions were kept on ice for at least ten minutes and the samples were centrifuged to remove precipitated protein. Supernatants were analyzed by LC-MS/MS methodology developed by the performing laboratory to quantitate the parent remaining.
(§5) The change in CBG concentration were used to calculate the Half life (t1/2 in min) and the intrinsic clearance ([…]) as shown in the following table (S. C, Khojasteh et.al., Drug Metabolism and Pharmacokinetics Quick Guide, Springer, NY, 2011), Intrinsic Clearance (CIint) is a measure of the ability of hepatocytes to eliminate drug irrespective other factors such as blood flow or protein binding. The calculations were the same as those used in Example 3A.

In a further data set the target is T2, UGT1A3 (Homo sapiens, UniProt P35503).
T2 sequence (P35503 29-534): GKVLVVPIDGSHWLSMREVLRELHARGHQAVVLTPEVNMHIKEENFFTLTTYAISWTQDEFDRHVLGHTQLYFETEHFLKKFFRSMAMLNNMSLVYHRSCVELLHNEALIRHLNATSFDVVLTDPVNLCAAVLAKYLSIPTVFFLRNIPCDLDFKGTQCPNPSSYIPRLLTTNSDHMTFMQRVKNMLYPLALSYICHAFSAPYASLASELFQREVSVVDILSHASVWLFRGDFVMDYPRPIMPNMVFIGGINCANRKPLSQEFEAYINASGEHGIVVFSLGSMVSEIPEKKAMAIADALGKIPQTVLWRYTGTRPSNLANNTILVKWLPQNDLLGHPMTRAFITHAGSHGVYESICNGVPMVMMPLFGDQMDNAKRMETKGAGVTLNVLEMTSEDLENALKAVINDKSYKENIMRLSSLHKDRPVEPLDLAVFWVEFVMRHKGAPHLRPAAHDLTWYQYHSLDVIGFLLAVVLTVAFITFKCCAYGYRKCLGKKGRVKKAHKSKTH
The conditions noted are these: recombinant enzyme, pH 7.4. Here is the method: as §1, §2, §3, §4, §5

Another data set has as its target T3, UGT2B15 (Homo sapiens, UniProt P54855).
T3 sequence (P54855 24-530): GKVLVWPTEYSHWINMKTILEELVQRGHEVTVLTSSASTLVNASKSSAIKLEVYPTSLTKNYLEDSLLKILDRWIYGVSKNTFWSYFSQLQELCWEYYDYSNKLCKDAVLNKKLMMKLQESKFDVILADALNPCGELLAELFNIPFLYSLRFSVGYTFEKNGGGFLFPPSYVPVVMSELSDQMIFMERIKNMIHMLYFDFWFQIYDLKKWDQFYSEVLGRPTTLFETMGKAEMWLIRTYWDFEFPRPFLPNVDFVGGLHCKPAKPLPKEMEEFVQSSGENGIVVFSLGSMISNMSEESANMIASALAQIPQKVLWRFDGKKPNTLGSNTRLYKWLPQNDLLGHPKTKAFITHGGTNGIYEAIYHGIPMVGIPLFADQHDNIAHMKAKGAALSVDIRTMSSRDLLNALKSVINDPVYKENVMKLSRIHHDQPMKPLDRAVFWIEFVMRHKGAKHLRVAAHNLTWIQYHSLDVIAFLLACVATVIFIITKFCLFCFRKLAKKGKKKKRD
The conditions noted are these: recombinant enzyme, pH 7.4. As for the experimental part:
as §1, §2, §3, §4, §5

For the next data set, the target named is T4, UGT1A6 (Homo sapiens, UniProt P19224).
T4 sequence (P19224 27-532): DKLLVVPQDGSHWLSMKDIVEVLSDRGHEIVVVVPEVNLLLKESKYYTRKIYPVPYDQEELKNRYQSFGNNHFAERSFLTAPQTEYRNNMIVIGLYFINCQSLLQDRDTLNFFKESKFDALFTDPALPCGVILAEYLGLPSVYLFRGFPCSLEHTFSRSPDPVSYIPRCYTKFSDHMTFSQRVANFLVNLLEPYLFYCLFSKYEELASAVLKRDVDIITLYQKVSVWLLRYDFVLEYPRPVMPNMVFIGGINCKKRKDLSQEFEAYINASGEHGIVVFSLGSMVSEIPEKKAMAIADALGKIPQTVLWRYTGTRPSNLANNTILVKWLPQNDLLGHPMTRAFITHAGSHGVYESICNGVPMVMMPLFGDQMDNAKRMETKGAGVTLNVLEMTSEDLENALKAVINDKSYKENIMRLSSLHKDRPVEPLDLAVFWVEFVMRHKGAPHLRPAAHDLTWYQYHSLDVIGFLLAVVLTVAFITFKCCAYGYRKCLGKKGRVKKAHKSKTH
The settings on record: recombinant enzyme, pH 7.4. Here is the method:
as §1, §2, §3, §4, §5

In general, half-life refers to the time needed for the level to fall by half in the phase considered. Broadly, the microsomal CLint is the capacity of the preparation to metabolise the compound, expressed as a volume cleared per time. On to `O=c1cc(C(F)(F)F)c2ccc(O)cc2o1` [7-OH4trifluoromethylcoumarin, 7-hydroxy-4-trifluoromethylcoumarin], for which the half-life at 1 µM is 50.4 min at UGT2B7, 51.8 min on UGT1A3, 24.9 min on UGT2B15 and 6.41 min at UGT1A6. The intrinsic metabolic clearance (microsomal CLint) at 1 µM was 27.5 µL/min/mg at UGT2B7, 26.8 µL/min/mg on UGT1A3, 55.8 µL/min/mg on UGT2B15 and 216 µL/min/mg on UGT1A6.

As to `CCCCCc1cc(O)c(C/C=C(\C)CCC=C(C)C)c(OC)c1` [Compound 1, (E)-2-(3,7-dimethylocta-2,6-dien-1-yl)-3-methoxy-5-pentylphenol], the half-life at 1 µM on UGT2B7 was 24.8 min; at UGT1A3, 108 min; on UGT2B15 it was 57.2 min; at UGT1A6, greater than 240 min. The microsomal CLint at 1 µM at UGT2B7 is 55.9 µL/min/mg; at UGT1A3, 12.8 µL/min/mg; on UGT2B15, 24.2 µL/min/mg; on UGT1A6, less than 2.89 µL/min/mg.

For the compound `CCCCCc1cc(O)c(C/C=C(\C)CCC=C(C)C)c(O)c1` [CBG, cannabigerol], the “activity of UGT2B7 relative to UGT1A9” value on UGT2B7 (CBG as substrate) was “approximately 1/10”. Further, the half-life at 1 µM at UGT2B7 was found to be 17.9 min; at UGT1A3 it was 44.1 min; on UGT2B15, 47.6 min; at UGT1A6 it was 95 min. Further, the microsomal CLint at 1 µM at UGT2B7 came to 77.5 µL/min/mg; at UGT1A3, 31.4 µL/min/mg; at UGT2B15 it was 29.1 µL/min/mg; on UGT1A6, 14.6 µL/min/mg.
